Values of other authors as cited in patent publication US11672863B2, “Enhanced solubility drug-containing formulations” (United Therapeutics Corporation, priority 2017, dated 2023).
Counter-ions that a name gives are not always drawn.

Conditions: in water between pH 1.8 and 6

In the case of `CCCCN1CCCCC1C(=O)Nc1c(C)cccc1C` (stereo not shown) [bupivacaine hydrochloride monohydrate], the solubility is given as 40 to 50 mg/mL.
